Tested on: HBV
Test: HBV replication inhibition assay (BDNA assay) in HepG2.2.15 cells
Format: cell-based
Settings: HBV replication assay (BDNA assay), HepG2.2.15 cells; read-out: DNA EC50
In short: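 Supernatant encapsidated HBV DNA was measured by bDNA after DNase digestion and proteinase K release. Stably HBV-integrated HepG2.2.15 cells had two 3-day compound exposures (0.5% DMSO). Signals were background-subtracted and normalized to DMSO wells, and EC50 was obtained by four-parameter fit.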

Structure (SMILES) | EC50 [nM]
Cc1cc(NC(=O)N2Cc3c(nn4c3C(=O)N(C)OC(CN(C)C)C4)C[C@H]2C)ccc1F (stereo in doubt) [Compound 097_D2, (4R*,9R)-4-((dimethylamino)methyl)-N-(4-fluoro-3-methylphenyl)-2,9-dimethyl-1-oxo-1,4,5,8,9,11-hexahydropyrido[4′,3′:3,4]pyrazolo[5,1-d][1,2,5]oxadiazepine-10(2H)-carboxamide] | 1 to 100
C[C@@H]1Cc2nn3c(c2CN1C(=O)Nc1ccc(F)c(C(F)(F)F)c1)C(=O)N(C)OC(CF)C3 (stereo in doubt) [Compound 085_E2, (4R*,9R)—N-(4-fluoro-3-(trifluoromethyl)phenyl)-4-(fluoromethyl)-2,9-dimethyl-1-oxo-1,4,5,8,9,11-hexahydropyrido[4′,3′:3,4]pyrazolo[5,1-d][1,2,5]oxadiazepine-10(2H)-carboxamide] | 1 to 100
CC(=O)NCC1Cn2nc3c(c2C(=O)N(C)O1)CN(C(=O)Nc1ccc(F)c(C(F)(F)F)c1)[C@H](C)C3 (single isomer, unassigned) [Compound 177_D2, (4R*,9R)-4-(acetamidomethyl)-N-(4-fluoro-3-(trifluoromethyl)phenyl)-2,9-dimethyl-1-oxo-1,4,5,8,9,11-hexahydropyrido[4′,3′:3,4]pyrazolo[5,1-d][1,2,5]oxadiazepine-10(2H)-carboxamide] | 1 to 100

Same assay, conditions: Hepatitis B virus, HepG2.2.15, HBV replication assay (BDNA assay), HepG2.2.15 cells; read-out: DNA EC50

Structure (SMILES) | EC50 [nM]
C[C@@H]1Cc2nn3c(c2CN1C(=O)Nc1ccc(F)c(Cl)c1F)C(=O)N(C)OC(C(=O)N(C)CC(F)F)C3 (stereo in doubt) [Compound 152_D2, (4R*,9R)—N10-(3-chloro-2,4-difluorophenyl)-N4-(2,2-difluoroethyl)-N4,2,9-trimethyl-1-oxo-1,4,5,8,9,11-hexahydropyrido[4′,3′:3,4]pyrazolo[5,1-d][1,2,5]oxadiazepine-4,10(2H)-dicarboxamide] | 1 to 100
C[C@@H]1Cc2nn3c(c2CN1C(=O)Nc1ccc(F)c(Br)c1)C(=O)N(C)OC(COCC(F)F)C3 (stereo in doubt) [Compound 122_D1, (4S*,9R)—N-(3-bromo-4-fluorophenyl)-4-((2,2-difluoroethoxy)methyl)-2,9-dimethyl-1-oxo-1,4,5,8,9,11-hexahydropyrido[4′,3′:3,4]pyrazolo[5,1-d][1,2,5]oxadiazepine-10(2H)-carboxamide] | 1 to 100
CN1OC(CO)Cn2nc3c(c2C1=O)CN(C(=O)Nc1cccc(C(F)F)c1)CC3 (centres unmarked) [Compound 021, N-(3-(difluoromethyl)phenyl)-4-(hydroxymethyl)-2-methyl-1-oxo-1,4,5,8,9,11-hexahydropyrido[4′,3′:3,4]pyrazolo[5,1-d][1,2,5]oxadiazepine-10(2H)-carboxamide] | 1 to 100
C[C@@H]1Cc2nn3c(c2CN1C(=O)Nc1cc(Cl)c(F)cc1F)C(=O)N(C)OC(COCC(F)F)C3 (stereo in doubt) [Compound 127_D2, (4R*,9R)—N-(5-chloro-2,4-difluorophenyl)-4-((2,2-difluoroethoxy)methyl)-2,9-dimethyl-1-oxo-1,4,5,8,9,11-hexahydropyrido[4′,3′:3,4]pyrazolo[5,1-d][1,2,5]oxadiazepine-10(2H)-carboxamide] | 1 to 100
C[C@@H]1Cc2nn3c(c2CN1C(=O)Nc1ccnc(Br)c1F)C(=O)N(C)OC(CN(C)C)C3 (stereo in doubt) [Compound 095_D1, (4S*,9R)—N-(2-bromo-3-fluoropyridin-4-yl)-4-((dimethylamino)methyl)-2,9-dimethyl-1-oxo-1,4,5,8,9,11-hexahydropyrido[4′,3′:3,4]pyrazolo[5,1-d][1,2,5]oxadiazepine-10(2H)-carboxamide] | 100 to 500
C[C@@H]1Cc2nn3c(c2CN1C(=O)Nc1ccc(F)c(C#N)c1)C(=O)N(C)OC(CO)C3 (stereo in doubt) [Compound 084_E1, (4S*,9R)—N-(3-cyano-4-fluorophenyl)-4-(hydroxymethyl)-2,9-dimethyl-1-oxo-1,4,5,8,9,11-hexahydropyrido[4′,3′:3,4]pyrazolo [5,1-d][1,2,5]oxadiazepine-10(2H)-carboxamide] | 1 to 100
CN1OC(CO)Cn2nc3c(c2C1=O)CN(C(=O)Nc1cc(Br)ncc1F)CC3 (single isomer, unassigned) [Compound 150_E1, (S*)—N-(2-bromo-5-fluoropyridin-4-yl)-4-(hydroxymethyl)-2-methyl-1-oxo-1,4,5,8,9,11-hexahydropyrido[4′,3′:3,4]pyrazolo[5,1-d][1,2,5]oxadiazepine-10(2H)-carboxamide] | 1 to 100
CN1OC(CO)Cn2nc3c(c2C1=O)CN(C(=O)Nc1cc(Cl)c(Cl)cc1F)CC3 (centres unmarked) [Compound 027, N-(4,5-dichloro-2-fluorophenyl)-4-(hydroxymethyl)-2-methyl-1-oxo-1,4,5,8,9,11-hexahydropyrido[4′,3′:3,4]pyrazolo[5,1-d][1,2,5]oxadiazepine-10(2H)-carboxamide] | 1 to 100
CN1OC(CO)Cn2nc3c(c2C1=O)CN(C(=O)Nc1ccc(F)c(C(F)(F)F)c1F)CC3 (single isomer, unassigned) [Compound 149_E1, (S*)—N-(2,4-difluoro-3-(trifluoromethyl)phenyl)-4-(hydroxymethyl)-2-methyl-1-oxo-1,4,5,8,9,11-hexahydropyrido[4′,3′:3,4]pyrazolo[5,1-d][1,2,5]oxadiazepine-10(2H)-carboxamide] | 1 to 100
CNC(=O)C1Cn2nc3c(c2C(=O)N(C)O1)CN(C(=O)Nc1ccc(F)c(C#N)c1F)CC3 (centres unmarked) [Compound 195, N10-(3-cyano-2,4-difluorophenyl)-N4,2-dimethyl-1-oxo-1,4,5,8,9,11-hexahydropyrido[4′,3′:3,4]pyrazolo[5,1-d][1,2,5]oxadiazepine-4,10(2H)-dicarboxamide] | 1 to 100
CN1O[C@H](CNCC(F)F)Cn2nc3c(c2C1=O)CN(C(=O)Nc1ccc(F)c(C(F)(F)F)c1)CC3 (stereo in doubt) [Compound 194_E1, (S*)-4-4(2,2-difluoroethyl)amino)methyl)-N-(4-fluoro-3-(trifluoromethyl)phenyl)-2-methyl-1-oxo-1,4,5,8,9,11-hexahydropyrido[4′,3′:3,4]pyrazolo[5,1-d][1,2,5]oxadiazepine-10(2H)-carboxamide] | 1 to 100
CC1Cn2nc3c(c2C(=O)N(C)O1)CN(C(=O)Nc1cccc(Cl)c1)CC3 (centres unmarked) [Compound 063, N-(3-chlorophenyl)-2,4-dimethyl-1-oxo-1,4,5,8,9,11-hexahydropyrido[4′,3′:3,4]pyrazole [5,1-d][1,2,5]oxadiazepine-10(2H)-carboxamide] | 1 to 100
Cc1cc(NC(=O)N2Cc3c(nn4c3C(=O)N(C)OC(CO)C4)C[C@H]2C)ccc1F (single isomer, unassigned) [Compound 083_E1, (4S*,9R)—N-(4-fluoro-3-methylphenyl)-4-(hydroxymethyl)-2,9-dimethyl-1-oxo-1,4,5,8,9,11-hexahydropyrido[4′,3′:3,4]pyrazolo[5,1-d][1,2,5]oxadiazepine-10(2H)-carboxamide] | 1 to 100
C[C@@H]1Cc2nn3c(c2CN1C(=O)Nc1ccc(F)c(Br)c1)C(=O)N(C)OC(CN(C)C)C3 (stereo in doubt) [Compound 094_D1, (4S*,9R)—N-(3-bromo-4-fluorophenyl)-4-((dimethylamino)methyl)-2,9-dimethyl-1-oxo-1,4,5,8,9,11-hexahydropyrido[4′,3′:3,4]pyrazolo[5,1-d][1,2,5]oxadiazepine-10(2H)-carboxamide] | 1 to 100

From patent US10987359B2, “Oxadiazepinone derivatives and methods of treating hepatitis B infections” (priority 2016, dated 2021)
